Test results: patent publication US20180064726A1, “Deuterium-Substituted Oxazepin Compounds” (Auspex Pharmaceuticals, Inc., priority 2016, published 2018)

Experiments:
[1] = system: patients with QT-3 (LQT3) syndrome; settings: cited from earlier work
[2] = In vitro human liver microsomal stability assay; assay type: in vitro ADME; settings: human liver microsomes 0.5 mg per mL protein, NADPH-generating system, 1 μM test compound, 37±1° C., 0-60 min; for half-life at 1 μM: degradation half-life; for CLint scaled at 1 μM: read-out: Clearance %
Protocol: In Vitro Liver Microsomal Stability Assay
Human liver microsomal stability assays were conducted at 0.5 mg per mL liver microsome protein with an NADPH-generating system consisting of NADP (1 mM, pH 7.4), […] (5 mM, pH 7.4), and glucose-6-phosphate dehydrogenase (1 unit/mL).
Test compounds were prepared as solutions in DMSO and added to the assay mixture (1 μM, final concentration in incubation) to be incubated at 37±1° C. Reactions were initiated with the addition of cofactor and were stopped at 0, 15, 30, 45, and 60 min after cofactor addition with stop reagent (0.2 mL acetonitrile). Samples were centrifuged (920×g for 10 min at 10° C.) in 96-well plates. Supernatant fractions were analyzed by LC-MS/MS to determine the percent remaining and estimate the degradation half-life of the test compounds.

Row | Compound | half-life at 1 μM [2] [h] | CLint scaled at 1 μM [2] [mL/min/kg] | effect on QTc interval [1]
1 | 4-(pyrimidin-2-ylmethyl)-7-[4-(trifluoromethoxy)phenyl]-2,3,4,5-tetrahydro-1,4-benzoxazepin-5-one [Example 1] |  |  | shortening of the QTc interval
2 | O=C1c2cc(-c3ccc(OC(F)(F)F)cc3)ccc2OCCN1Cc1ncccn1 [Example 1, 4-(pyrimidin-2-ylmethyl)-7-[4-(trifluoromethoxy)phenyl]-2,3,4,5-tetrahydro-1,4-benzoxazepin-5-one, reference compound] | 2.36 | 12.3 | 
3 | [2H]C([2H])(c1ncccn1)N1CCOc2ccc(-c3ccc(OC(F)(F)F)cc3)cc2C1=O [Example 2, 4-(pyrimidin-2-ylmethyl-d2)-7-(4-(trifluoromethoxy)phenyl)-3,4-dihydrobenzo[f][1,4]oxazepin-5(2H)-one] | 9.52 | 3.04 | 
4 | [2H]C1([2H])CN(Cc2ncccn2)C(=O)c2cc(-c3ccc(OC(F)(F)F)cc3)ccc2O1 [Example 3, 4-(pyrimidin-2-ylmethyl)-7-[4-(trifluoromethoxy)phenyl]-2,3,4,5-tetrahydro(2,2-d2)-1,4-benzoxazepin-5-one] | 4.62 | 6.27 | 

Now from value to compound, other results behind:

Row | half-life at 1 μM [2] [h] | CLint scaled at 1 μM [2] [mL/min/kg] | Compound | effect on QTc interval [1]
5 | 2.01 | 14.4 | [2H]C1([2H])COc2ccc(-c3ccc(OC(F)(F)F)cc3)cc2C(=O)N1Cc1ncccn1 [Example 4, 4-(pyrimidin-2-ylmethyl)-7-(4-(trifluoromethoxy)phenyl)-3,4-dihydrobenzo[f][1,4]oxazepin-5(2H)-one-3,3-d2] | 
6 | 1.35 | 21.5 | [2H]C1([2H])Oc2ccc(-c3ccc(OC(F)(F)F)cc3)cc2C(=O)N(Cc2ncccn2)C1([2H])[2H] [Example 5, 4-(pyrimidin-2-ylmethyl)-7-[4-(trifluoromethoxy)phenyl]-2,3,4,5-tetrahydro(2,2,3,3-d4)-1,4-benzoxazepin-5-one] | 
7 | 1.51 | 19.2 | [2H]C([2H])(c1ncccn1)N1C(=O)c2cc(-c3ccc(OC(F)(F)F)cc3)ccc2OC([2H])([2H])C1([2H])[2H] [Example 6, 4-[pyrimidin-2-yl(d2)methyl]-7-[4-(trifluoromethoxy)phenyl]-2,3,4,5-tetrahydro(2,2,3,3-d4)-1,4-benzoxazepin-5-one] | 
8 | 2.32 | 12.5 | [2H]c1c(-c2ccc(OC(F)(F)F)cc2)cc2c(c1[2H])OCCN(Cc1ncccn1)C2=O [Example 7, 4-(pyrimidin-2-ylmethyl)-7-[4-(trifluoromethoxy)phenyl]-2,3,4,5-tetrahydro(8,9-d2)-1,4-benzoxazepin-5-one] | 
